Assay results taken from article PMC9503132, “Development of Halogenated-Chalcones Bearing with Dimethoxy Phenyl Head as Monoamine Oxidase-B Inhibitors” (Pharmaceuticals, 2022).
Where two headings read alike, the source gives them in different places.

What was measured:
MAO-A = target: T1, MAO-A (Homo sapiens, UniProt P21397); test: MAO-A inhibition assay (recombinant enzyme, kynuramine substrate); type: biochemical; conditions: for remaining activity at 10 µM: read-out: Residual Activity at 10 µM (%) MAO-A
T1 construct: purchased Sigma-Aldrich
T1 sequence (P21397 1-527): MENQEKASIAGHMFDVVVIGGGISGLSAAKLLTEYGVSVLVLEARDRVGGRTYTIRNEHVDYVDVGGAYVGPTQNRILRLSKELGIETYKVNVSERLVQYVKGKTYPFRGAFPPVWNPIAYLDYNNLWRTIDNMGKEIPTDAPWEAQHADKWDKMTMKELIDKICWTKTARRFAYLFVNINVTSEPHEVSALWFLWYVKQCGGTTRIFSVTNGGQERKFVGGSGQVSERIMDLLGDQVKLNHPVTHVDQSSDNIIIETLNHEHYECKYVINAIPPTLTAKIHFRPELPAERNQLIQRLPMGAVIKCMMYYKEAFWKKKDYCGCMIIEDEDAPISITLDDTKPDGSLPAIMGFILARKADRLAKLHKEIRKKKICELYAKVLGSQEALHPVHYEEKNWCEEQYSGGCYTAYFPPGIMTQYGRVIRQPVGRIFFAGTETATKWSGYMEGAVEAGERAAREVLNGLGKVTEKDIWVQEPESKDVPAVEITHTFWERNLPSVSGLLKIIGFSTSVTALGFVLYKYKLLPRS
Procedure: (§1) Recombinant MAO-A and MAO-B were used to test the MAO inhibitory activity using the substrates kynuramine and benzylamine (0.06 mM and 0.3 mM, respectively). […] Chemicals were from Sigma-Aldrich.
(§2) MAO-A At 10 µM, compounds’ inhibitory effects on MAOs were initially recorded. […] The SI values of MAO-B were calculated by dividing the IC50 values for MAO-A and those for MAO-B. The MAO-B was used to study the kinetics of substances DM2 or DM18 at five different substrate concentrations. By using the LB plots and their secondary plots at three different inhibitor doses, the inhibition patterns were examined.

MAO-B = target: T2, MAO-B (Homo sapiens, UniProt P27338); test: MAO-B inhibition assay (recombinant enzyme, benzylamine substrate); type: biochemical; conditions: for remaining activity at 10 µM: read-out: Residual Activity at 10 µM (%) MAO-B
T2 construct: purchased Sigma-Aldrich
T2 sequence (P27338 1-520): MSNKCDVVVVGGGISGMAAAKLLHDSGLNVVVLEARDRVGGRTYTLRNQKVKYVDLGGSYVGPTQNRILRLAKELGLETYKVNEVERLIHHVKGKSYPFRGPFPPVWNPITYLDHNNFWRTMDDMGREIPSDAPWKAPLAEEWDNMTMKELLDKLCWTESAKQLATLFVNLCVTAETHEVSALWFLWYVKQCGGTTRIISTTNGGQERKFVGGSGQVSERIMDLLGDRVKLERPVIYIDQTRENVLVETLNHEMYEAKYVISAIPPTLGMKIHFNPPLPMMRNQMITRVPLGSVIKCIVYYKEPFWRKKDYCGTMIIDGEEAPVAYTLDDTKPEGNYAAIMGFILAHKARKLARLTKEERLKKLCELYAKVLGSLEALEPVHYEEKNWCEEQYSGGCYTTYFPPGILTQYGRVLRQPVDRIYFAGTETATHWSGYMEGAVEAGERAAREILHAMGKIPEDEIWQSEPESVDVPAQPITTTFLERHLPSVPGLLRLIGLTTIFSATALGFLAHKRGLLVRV
Procedure: as §1, §2

AChE = AChE (Electrophorus electricus, UniProt O42275); test: AChE inhibition (colorimetric, acetylthiocholine iodide); type: biochemical; conditions: read-out: Residual activity at 10 µM (%) AChE
Sequence of AChE (O42275 24-633): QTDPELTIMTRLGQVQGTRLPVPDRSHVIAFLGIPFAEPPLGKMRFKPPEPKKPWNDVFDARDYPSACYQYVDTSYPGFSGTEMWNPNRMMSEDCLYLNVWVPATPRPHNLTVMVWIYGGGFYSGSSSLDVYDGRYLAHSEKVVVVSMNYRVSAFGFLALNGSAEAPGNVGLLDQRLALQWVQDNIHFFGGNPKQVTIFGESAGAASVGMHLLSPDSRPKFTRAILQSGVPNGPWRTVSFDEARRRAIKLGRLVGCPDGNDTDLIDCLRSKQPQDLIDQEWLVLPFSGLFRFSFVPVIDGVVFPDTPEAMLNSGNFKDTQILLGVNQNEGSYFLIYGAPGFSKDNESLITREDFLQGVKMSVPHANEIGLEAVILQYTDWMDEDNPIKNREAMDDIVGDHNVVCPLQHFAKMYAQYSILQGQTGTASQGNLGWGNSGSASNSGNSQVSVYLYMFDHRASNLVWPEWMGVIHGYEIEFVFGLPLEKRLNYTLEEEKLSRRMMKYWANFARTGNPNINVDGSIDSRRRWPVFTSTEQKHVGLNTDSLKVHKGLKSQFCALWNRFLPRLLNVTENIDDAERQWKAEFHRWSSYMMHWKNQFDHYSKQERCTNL
Procedure: (§3) The AChE and BChE inhibitory activities were measured by continuous colorimetric determination method, in the presence of 0.5 mM acetylthiocholine iodide (ACTI) and butyrylthiocholine iodide […]
POP, K LAB, Daejeon, Korea). After adding the substrate, 0.5 mM 5,5-dithiobis (2-nitrobenzoic acid) (DTNB) was added as the color development solution. The BACE-1 inhibitory activity was evaluated by β-secretase (BACE1) activity detection kit (Sigma-Aldrich, St. Louis, Mo, USA) using a fluorescence spectrometer (FS-2, Scinco, Seoul, Korea).
64. […] A new and rapid colorimetric determination of acetylcholinesterase activity. Biochem. Pharmacol. 7, 88-95. […]

BChE = BChE (Equus caballus, UniProt P81908); test: biochemical; conditions: read-out: Residual activity at 10 µM (%) BChE
Sequence of BChE (P81908 whole entry): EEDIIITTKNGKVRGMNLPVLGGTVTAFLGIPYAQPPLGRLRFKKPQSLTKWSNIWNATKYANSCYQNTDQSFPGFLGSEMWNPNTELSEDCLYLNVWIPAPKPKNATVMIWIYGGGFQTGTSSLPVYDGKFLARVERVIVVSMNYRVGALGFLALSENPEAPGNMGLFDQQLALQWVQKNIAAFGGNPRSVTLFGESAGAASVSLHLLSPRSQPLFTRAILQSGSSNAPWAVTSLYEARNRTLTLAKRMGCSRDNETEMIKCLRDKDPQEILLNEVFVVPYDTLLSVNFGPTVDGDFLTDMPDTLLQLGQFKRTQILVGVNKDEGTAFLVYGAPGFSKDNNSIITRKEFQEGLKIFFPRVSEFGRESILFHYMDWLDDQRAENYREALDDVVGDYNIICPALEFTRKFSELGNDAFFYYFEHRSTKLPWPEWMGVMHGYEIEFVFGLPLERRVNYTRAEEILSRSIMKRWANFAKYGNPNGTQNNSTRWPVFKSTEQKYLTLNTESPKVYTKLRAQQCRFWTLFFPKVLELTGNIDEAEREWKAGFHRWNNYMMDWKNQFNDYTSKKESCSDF
Procedure: as §3
(§4) POP, K LAB, Daejeon, Korea). After adding the substrate, 0.5 mM 5,5-dithiobis (2-nitrobenzoic acid) (DTNB) was added as the color development solution. The BACE-1 inhibitory activity was evaluated by β-secretase (BACE1) activity detection kit (Sigma-Aldrich, St. Louis, Mo, USA) using a fluorescence spectrometer (FS-2, Scinco, Seoul, Korea). […]

BACE-1 = target: T3, BACE-1 (Homo sapiens, UniProt P56817); test: BACE-1 inhibition (β-secretase activity detection kit); type: biochemical; conditions: read-out: Residual activity at 10 µM (%) BACE-1
T3 construct: purchased Sigma-Aldrich
T3 sequence (P56817 46-501): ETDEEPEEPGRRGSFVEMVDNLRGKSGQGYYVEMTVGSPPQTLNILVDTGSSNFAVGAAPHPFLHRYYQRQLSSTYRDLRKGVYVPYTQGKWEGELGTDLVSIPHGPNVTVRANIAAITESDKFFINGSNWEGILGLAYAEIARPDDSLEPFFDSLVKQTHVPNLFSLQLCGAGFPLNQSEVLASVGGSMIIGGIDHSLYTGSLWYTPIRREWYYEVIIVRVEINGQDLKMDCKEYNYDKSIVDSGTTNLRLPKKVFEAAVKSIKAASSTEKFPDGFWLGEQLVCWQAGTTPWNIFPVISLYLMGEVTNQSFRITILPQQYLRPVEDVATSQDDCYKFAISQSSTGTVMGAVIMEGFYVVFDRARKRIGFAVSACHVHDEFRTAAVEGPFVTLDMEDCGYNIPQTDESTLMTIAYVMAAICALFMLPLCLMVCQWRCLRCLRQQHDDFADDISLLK
Procedure: as §3, §4

[1] = 10 µM compound, recombinant MAO-A, kynuramine 0.06 mM
[2] = recombinant MAO-A, kynuramine 0.06 mM, read-out: IC50 (µM) MAO-A
[3] = 10 µM compound, recombinant MAO-B, benzylamine 0.3 mM
[4] = IC50 MAO-A divided by IC50 MAO-B
[5] = recombinant MAO-B, benzylamine 0.3 mM, read-out: IC50 (µM) MAO-B

Structure (SMILES)	remaining activity at 10 µM (MAO-A; [1])	IC50 (MAO-A; [2])	remaining activity at 10 µM (MAO-B; [3])	SI (selectivity index for MAO-B as compared to MAO-A) (MAO-B; [4])	IC50 (MAO-B; [5])	remaining activity at 10 µM (AChE)	remaining activity at 10 µM (BChE)	remaining activity at 10 µM (BACE-1; 10 µM compound)	SI (selectivity index for MAO-B as compared to MAO-A) (MAO-B)	IC50 (MAO-A)	remaining activity at 10 µM (MAO-A)	IC50 (MAO-B)	remaining activity at 10 µM (MAO-B)	remaining activity at 10 µM (BACE-1)
COc1ccc(C(=O)/C=C/c2cccc(F)c2)c(OC)c1 [DM9]	50.6 ± 0.82%	11.3 ± 1.06 µM	10.8 ± 0.23%	45.93	0.246 ± 0.074 µM	71.9 ± 3.06%	72.5 ± 3.69%	88.2 ± 0.28%						
COc1ccc(C(=O)/C=C/c2cccc(Cl)c2)c(OC)c1 [DM3]	43.3 ± 1.2%	5.73 ± 0.142 µM	7.89 ± 0.63%	44.08	0.13 ± 0.023 µM	81.5 ± 4.09%	69.87 ± 0.19%	99.67 ± 0.53%						
COc1ccc(C(=O)/C=C/c2ccc(Cl)cc2)cc1OC [DM14]	98.8 ± 1.77%	> 40 µM	9.45 ± 2.88%	>48.02	0.833 ± 0.087 µM	97.6 ± 3.42%	76.5 ± 1.37%	99.83 ± 0.81%						
COc1ccc(C(=O)/C=C/c2ccc(F)cc2)cc1OC [DM20]	97.5 ± 8.95%	> 40 µM	3.7%		0.483 ± 0.077 µM	86.98 ± 0.45%	93.1 ± 6.5%	99.89 ± 0.08%	>83.82					
COc1ccc(C(=O)/C=C/c2ccccc2Br)c(OC)c1 [DM5]	54.5 ± 4.32%	12.4 ± 0.872 µM	10.6 ± 1.88%	77.02	0.161 ± 0.02 µM	71.2 ± 6.12%	60.54 ± 0.03%	87.8 ± 0.29%						
COc1ccc(C(=O)/C=C/c2cccc(Cl)c2)cc1OC [DM13]	75.6 ± 0.88%	> 40 µM	7.49 ± 0.12%	>8.51	4.7 ± 0.32 µM	95 ± 3.4%	100 ± 7.32%	99.86 ± 0.28%						
COc1ccc(C(=O)/C=C/c2ccccc2F)c(OC)c1 [DM8]	56.4 ± 7.34%	13.4 ± 0.82 µM	11.1 ± 1.44%	11.90	1.13 ± 0.033 µM	82.7 ± 10.4%	85.42 ± 0.67%	91.01 ± 0.06%						
COc1ccc(C(=O)/C=C/c2ccc(Br)cc2)c(OC)c1 [DM7]	40.3 ± 1.05%	4.733 ± 0.005 µM	15.6 ± 1.78%	5.60	0.844 ± 0.023 µM	87.2 ± 1.19%	98.2 ± 1.01%	97.29 ± 0.34%						
COc1ccc(C(=O)/C=C/c2ccccc2Cl)cc1OC [DM12]	88.7 ± 9.4%	> 40 µM	8.98 ± 0.92%	>32.65	1.23 ± 0.25 µM	68.5 ± 2.87%	63.5 ± 1.47%	94.3 ± 1.06%						
COc1ccc(C(=O)/C=C/c2cccc(Br)c2)c(OC)c1 [DM6]	62.7 ± 1.32%	12.8 ± 1.57 µM	5.5 ± 0.64%	86.49	0.148 ± 0.087 µM	73 ± 0.75%	79.7 ± 1.1%	88.53 ± 0.22%						
COc1ccc(C(=O)/C=C/c2ccc(Cl)cc2)c(OC)c1 [DM4]				7.61		74.2 ± 2.43%	80.1 ± 1.59%			4.48 ± 0.152 µM	38.8 ± 3.4%	0.589 ± 0.055 µM	18.6 ± 1.04%	90.82 ± 0.09%
COc1ccc(C(=O)/C=C/c2ccc(Br)cc2)cc1OC [DM17]	96.88 ± 0.88%	> 40 µM	13.8 ± 0.61%	>273.97	0.146 ± 0.041 µM	81.8 ± 6.31%	68.9 ± 1.57%	100.03 ± 0.04%						
COc1ccc(C(=O)/C=C/c2ccccc2Br)cc1OC [DM15]	77.5 ± 7.07%	> 40 µM	10.2 ± 0.17%	>55.87	0.716 ± 0.056 µM	83.9 ± 4.91%	55.2 ± 1.01%	99.54 ± 0.24%						
COc1ccc(C(=O)/C=C/c2ccc(F)cc2)c(OC)c1 [DM10]	53.9 ± 7.17%	16 ± 1.47 µM	23.2 ± 0.37%	8.14	1.96 ± 0.065 µM	64.3 ± 6.85%	92.84 ± 0.51%	87.13 ± 0.42%						
COc1ccc(C(=O)/C=C/c2ccccc2)cc1OC [DM11]	64.6 ± 0.72%	14.3 ± 1.83 µM	14.6 ± 3.48%	6.54	2.19 ± 0.098 µM	80.3 ± 5.21%	80.5 ± 1.36%	97.5 ± 1.02%						
